17 molecules from US9303035B2, “Substituted pyrazino[1′,2′:1,2]pyrrolo[3,4-d]pyrimidines, pyrimido[4′,5′:3,4]pyrrolo[2,1-c][1,4]oxazines and pyrimido[4′,5′:3,4]pyrrolo[1,2-d][1,4]oxazepines for inhibiting the CFTR channel” (Novartis AG, priority 2012, dated 2016) can be followed below.

Molecules are shown by their SMILES.

By IC50 is commonly meant the concentration at which inhibition is half-maximal. Read a high IC50 as weaker potency in that assay.

Sequence of CFTR (WT-CFTR channels stably expressed in CHO cells) (P13569 whole entry): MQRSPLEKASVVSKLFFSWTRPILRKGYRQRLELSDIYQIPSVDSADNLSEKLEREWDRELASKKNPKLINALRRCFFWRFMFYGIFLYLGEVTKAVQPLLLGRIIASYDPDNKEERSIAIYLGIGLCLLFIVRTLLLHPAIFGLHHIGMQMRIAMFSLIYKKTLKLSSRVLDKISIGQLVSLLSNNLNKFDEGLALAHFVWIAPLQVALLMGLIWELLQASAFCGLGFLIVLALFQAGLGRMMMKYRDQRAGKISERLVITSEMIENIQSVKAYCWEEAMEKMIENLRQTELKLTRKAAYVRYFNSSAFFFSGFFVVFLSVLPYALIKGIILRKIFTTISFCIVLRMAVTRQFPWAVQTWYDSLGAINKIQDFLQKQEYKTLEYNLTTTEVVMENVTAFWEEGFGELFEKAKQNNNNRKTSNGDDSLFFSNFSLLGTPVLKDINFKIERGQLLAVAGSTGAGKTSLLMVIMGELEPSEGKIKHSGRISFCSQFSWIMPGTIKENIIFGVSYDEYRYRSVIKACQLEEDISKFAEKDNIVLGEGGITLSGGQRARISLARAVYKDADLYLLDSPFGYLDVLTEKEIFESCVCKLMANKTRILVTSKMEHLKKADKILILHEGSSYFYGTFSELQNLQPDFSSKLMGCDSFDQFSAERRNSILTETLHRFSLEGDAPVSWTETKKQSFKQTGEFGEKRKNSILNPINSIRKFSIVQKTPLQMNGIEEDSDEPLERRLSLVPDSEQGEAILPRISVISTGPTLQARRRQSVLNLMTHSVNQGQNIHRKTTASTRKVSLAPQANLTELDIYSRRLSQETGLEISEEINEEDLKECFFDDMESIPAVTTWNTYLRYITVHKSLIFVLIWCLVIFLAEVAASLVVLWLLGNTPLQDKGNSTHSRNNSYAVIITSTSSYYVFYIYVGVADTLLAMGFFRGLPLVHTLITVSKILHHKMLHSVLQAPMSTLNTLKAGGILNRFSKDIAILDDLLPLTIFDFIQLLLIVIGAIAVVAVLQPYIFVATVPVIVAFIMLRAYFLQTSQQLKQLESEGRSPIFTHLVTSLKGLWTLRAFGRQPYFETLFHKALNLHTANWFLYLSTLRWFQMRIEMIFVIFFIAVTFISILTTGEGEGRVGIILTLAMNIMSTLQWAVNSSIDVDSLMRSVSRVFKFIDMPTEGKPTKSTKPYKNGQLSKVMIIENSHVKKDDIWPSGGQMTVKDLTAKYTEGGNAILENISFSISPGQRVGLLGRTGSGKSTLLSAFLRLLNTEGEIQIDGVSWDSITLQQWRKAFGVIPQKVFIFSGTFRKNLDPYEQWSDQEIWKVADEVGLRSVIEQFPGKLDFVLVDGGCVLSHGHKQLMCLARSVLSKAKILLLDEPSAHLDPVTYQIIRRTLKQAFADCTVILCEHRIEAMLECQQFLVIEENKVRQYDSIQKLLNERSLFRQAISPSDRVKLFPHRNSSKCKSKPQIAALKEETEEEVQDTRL

The assay has as its target CFTR (WT-CFTR channels stably expressed in CHO cells) (Homo sapiens (Human), UniProt P13569). The assay is described as follows: IonWorks Quattro CFTR inhibitor assay (whole-cell population patch clamp, forskolin-activated current). The class given is cell-based. The conditions noted are these: inward current (−100 mV); CHO cells stably expressing WT-CFTR; CFTR activated with 10 μM forskolin; 10 min compound incubation. The text has this: CFTR activity can be quantified by electrophysiology methods, using the whole-cell configuration of the patch clamp technique (Hamill O, Marty A, Neher E, Sakmann B and Sigworth F. ‘Improved patch-clamp techniques for high resolution current recording from cells and cell-free membrane patches.’ Pflugers Archive 1981 391: 85-100). This assay directly measures the currents associated with chloride flow through CFTR channels whilst either maintaining or adjusting the transmembrane voltage. This assay can use either single glass micropipettes or parallel planar arrays to measure CFTR activity from native or recombinant cell systems. Currents measured using parallel planar arrays can be quantified using an appropriately equipped instrument such as the IonWorks Quattro (Molecular Devices Corporation, Sunnyvale, Calif.). The Quattro system can measure CFTR currents from either a single cell per recording well (HT configuration) or alternatively from a population of 64 cells per well (Population Patch Clamp PPC) (Finkel A, Wittel A, Yang N, Handran S, Hughes J, Costantin J. ‘Population patch clamp improves data consistency and success rates in the measurement of ionic currents.’ J Biomol Screen. 2006 August; 11(5):488-96).
Chinese hamster ovary (CHO) cells stably expressing WT-CFTR channels were used for the IonWorks Quattro experiments. Cells were maintained at 37° C. in 5% v/v CO2 at 100% humidity in MEM alpha medium supplemented with 10% (v/v) FCS, 100 U/mL Penicillin/Streptomycin, and 100 μg/L methotrexate. For experiments, cells were grown in 225 cm^2 tissue culture flasks until almost confluent. Cells were removed from the flask using trypsin-EDTA and resuspended in extracellular recording solution for immediate experimentation.
Cells, at a density of 1.5-2 million per mL, were placed on the Quattro system, added to the planar patch plate and seals allowed to establish for 5-10 mins. After assessing seal resistances (typically >50 MΩ), whole-cell access was obtained by perforation with 100 μg/mL amphotericin B. Baseline currents were measured by a pre-compound scan obtained by application of a voltage ramp from −100 to +100 mV. CFTR was activated by the addition of 10 μM forskolin to each of the 384 wells of the patch plate. After 5 min incubation the post-compound 1 currents were measured, again by application of a voltage ramp from −100 to +100 mV. Test compounds, diluted from 10 mM stocks in DMSO in extracellular solution were then added to the patch plate and were incubated for a further 10 min. The post-compound 2 currents were measured by the application of the same voltage ramp from −100 to +100 mV. The inhibition of CFTR was determined from the difference in current between the forskolin addition (post-compound 1) and the test compound (post-compound 2). This was determined at both −100 mV and +100 mV which represents the inward and outward current respectively.
Extracellular solution (ECS): 145 mM NaCl, 4 mM CsCl, 5 mM D-glucose, 10 mM TES, 1 mM CaCl2, 1 mM MgCl2, pH 7.4 NaOH
Intracellular solution (ICS): 113 mM L-Aspartic acid, 113 mM CsOH, 27 mM CsCl, 1 mM NaCl, 1 mM MgCl2, 1 mM EGTA, 10 mM TES. pH 7.2 with CsOH. Filter sterilized before use.
In general terms: In patch-clamp work, channel activity is measured electrically.
`Cn1c(=O)c2c(-c3ccccc3)n3c(c2n(C)c1=O)C(c1nc(C(F)(F)F)cs1)NCC3` (centres unmarked) [Example 1.9, 1,3-Dimethyl-5-phenyl-10-(4-(trifluoromethyl)thiazol-2-yl)-7,8,9,10-tetrahydropyrazino[1′,2′:1,2]pyrrolo[3,4-d]pyrimidine-2,4(1H,3H)-dione] displayed an IC50 of 6.31 µM. In other words, the single-digit micromolar range.

`CCc1ccc(C2NCCn3c(-c4ccccc4)c4c(=O)n(C)c(=O)n(C)c4c32)o1` (centres unmarked) [Example 1.10, 10-(5-Ethylfuran-2-yl)-1,3-dimethyl-5-phenyl-7,8,9,10-tetrahydropyrazino[1′,2′:1,2]pyrrolo[3,4-d]pyrimidine-2,4(1H,3H)-dione] showed a half-inhibitory concentration (IC50) of 6.37 µM.

With `Cn1ccc(C2NCCn3c(-c4ccccc4)c4c(=O)n(C)c(=O)n(C)c4c32)n1` (centres unmarked) [Example 1.12, 1,3-Dimethyl-10-(1-methyl-1H-pyrazol-3-yl)-5-phenyl-7,8,9,10-tetrahydropyrazino[1′,2′:1,2]pyrrolo[3,4-d]pyrimidine-2,4(1H,3H)-dione], the IC50 worked out at 10.8 µM.

On to `Cn1c(=O)c2c(-c3ccccc3)n3c(c2n(C)c1=O)C(c1cccc(F)c1F)NCC3` (centres unmarked) [Example 1.14, 10-(2,3-Difluorophenyl)-1,3-dimethyl-5-phenyl-7,8,9,10-tetrahydropyrazino[1′,2′:1,2]pyrrolo[3,4-d]pyrimidine-2,4(1H,3H)-dione], for which inhibition was half-maximal at 11.5 µM (IC50).

In the case of `Cn1c(=O)c2c(-c3ccccc3)n3c(c2n(C)c1=O)C(C1CC=CCC1)NCC3` (centres unmarked) [Example 1.17, 10-(Cyclohex-3-en-1-yl)-1,3-dimethyl-5-phenyl-7,8,9,10-tetrahydropyrazino[1′,2′:1,2]pyrrolo[3,4-d]pyrimidine-2,4(1H,3H)-dione], 18.1 µM corresponded to half-maximal inhibition (IC50).

`Cn1c(=O)c2c(-c3ccccc3)n3c(c2n(C)c1=O)C(c1ccc(Cl)cc1)NCC3` (centres unmarked) [Example 1.23, 10-(4-Chlorophenyl)-1,3-dimethyl-5-phenyl-7,8,9,10-tetrahydropyrazino[1′,2′:1,2]pyrrolo[3,4-d]pyrimidine-2,4(1H,3H)-dione] returned an IC50 of 29.9 µM.

As to `Cc1csc(-c2c3c(=O)n(C)c(=O)n(C)c3c3n2CCNC3c2ccc(Cl)o2)n1` (centres unmarked) [Example 1.26, 10-(5-Chlorofuran-2-yl)-1,3-dimethyl-5-(4-methylthiazol-2-yl)-7,8,9,10-tetrahydropyrazino[1′,2′:1,2]pyrrolo[3,4-d]pyrimidine-2,4(1H,3H)-dione], the IC50 is 1.9 µM.

Consider `Cn1c(=O)c2c(-c3cccc(Cl)c3)n3c(c2n(C)c1=O)C(c1ccc(Cl)o1)NCC3` (centres unmarked) [Example 3.1, 10-(5-Chlorofuran-2-yl)-5-(3-chlorophenyl)-1,3-dimethyl-7,8,9,10-tetrahydropyrazino[1′,2′:1,2]pyrrolo[3,4-d]pyrimidine-2,4(1H,3H)-dione], for which the IC50 is 0.7 µM.

For the molecule `Cc1csc(C2NCCn3c(-c4cccc(Cl)c4)c4c(=O)n(C)c(=O)n(C)c4c32)n1` (centres unmarked) [Example 3.2, 5-(3-Chlorophenyl)-1,3-dimethyl-10-(4-methylthiazol-2-yl)-7,8,9,10-tetrahydropyrazino[1′,2′:1,2]pyrrolo[3,4-d]pyrimidine-2,4(1H,3H)-dione], half-maximal inhibition (IC50) was put at 0.64 µM.

For `Cc1cc(C)cc(-c2c3c(=O)n(C)c(=O)n(C)c3c3n2CCNC3c2ccc(Cl)o2)c1` (centres unmarked) [Example 3.6, 10-(5-Chlorofuran-2-yl)-5-(3,5-dimethylphenyl)-1,3-dimethyl-7,8,9,10-tetrahydropyrazino[1′,2′:1,2]pyrrolo[3,4-d]pyrimidine-2,4(1H,3H)-dione], 8.26 µM corresponded to half-maximal inhibition (IC50).

In the case of `Cc1csc(C2OC[C@@H](C)n3c(-c4ccccc4)c4c(=O)n(C)c(=O)n(C)c4c32)n1` (stereo partly drawn) [Example 5.1, (7R)-1,3,7-trimethyl-10-(4-methylthiazol-2-yl)-5-phenyl-7,8-dihydro-1H-pyrimido[4′,5′:3,4]pyrrolo[2,1-c][1,4]oxazine-2,4(3H,10H)-dione], it took 3.24 µM to reach half-maximal inhibition (IC50).

In the case of `Cn1c(=O)c2c(-c3cccc(F)c3)n3c(c2n(C)c1=O)[C@H](c1ccc(Cl)o1)O[C@@H](CO)C3` [Example 6, (8R,10R)-10-(5-Chlorofuran-2-yl)-5-(3-fluorophenyl)-8-(hydroxymethyl)-1,3-dimethyl-7,8-dihydro-1H-pyrimido[4′,5′:3,4]pyrrolo[2,1-c][1,4]oxazine-2,4(3H,10H)-dione], it took 0.05 µM to reach half-maximal inhibition (IC50).

`Cn1c(=O)c2c(-c3ccccc3)n3c(c2n(C)c1=O)[C@H](c1ccc(Cl)o1)N[C@@H](CO)C3` [Example 11a, 10-(5-Chlorofuran-2-yl)-8-(hydroxymethyl)-1,3-dimethyl-5-phenyl-7,8,9,10-tetrahydropyrazino[1′,2′:1,2]pyrrolo[3,4-d]pyrimidine-2,4(1H,3H)-dione] showed an IC50 of 0.31 µM. This IC50 lies about 6.2-fold higher than the previous one.

As to `Cc1csc([C@H]2O[C@@H](C)Cn3c(-c4ccccc4)c4c(=O)n(C)c(=O)n(C)c4c32)n1` [Example 12, (8S)-1,3,8-trimethyl-10-(4-methylthiazol-2-yl)-5-phenyl-7,8-dihydro-1H-pyrimido[4′,5′:3,4]pyrrolo[2,1-c][1,4]oxazine-2,4(3H,10H)-dione], half-maximal inhibition (IC50) required 0.6 µM.

In the case of `Cn1c(=O)c2c(-c3ccccc3)n3c(c2n(C)c1=O)C(c1ccc(Cl)o1)OC(C)(C)C3` (centres unmarked) [Example 12.5, 10-(5-Chlorofuran-2-yl)-1,3,8,8-tetramethyl-5-phenyl-7,8-dihydro-1H-pyrimido[4′,5′:3,4]pyrrolo[2,1-c][1,4]oxazine-2,4(3H,10H)-dione], 0.62 µM corresponded to half-maximal inhibition (IC50).

As for `Cn1c(=O)c2c(-c3ccccc3)n3c(c2n(C)c1=O)[C@H](c1nc(Cl)cs1)COCC3` [Example 13, 11-(4-chlorothiazol-2-yl)-1,3-dimethyl-5-phenyl-7,8,10,11-tetrahydropyrimido[4′,5′:3,4]pyrrolo[1,2-d][1,4]oxazepine-2,4(1H,3H)-dione], the IC50 came out at 3.53 µM.

`Cn1c(=O)c2c(-c3cccc(C#N)c3)n3c(c2n(C)c1=O)[C@H](c1nc(Cl)cs1)CO[C@H](CO)C3` [Example 14, 3-(11-(4-chlorothiazol-2-yl)-8-(hydroxymethyl)-1,3-dimethyl-2,4-dioxo-1,2,3,4,7,8,10,11-octahydropyrimido[4′,5′:3,4]pyrrolo[1,2-d][1,4]oxazepin-5-yl)benzonitrile]: half-maximal inhibition (IC50) required 1.96 µM.
